Test results published in US20050118228A1, “Compositions and methods for augmentation or repair of intervertebral discs” (priority 2003, published 2005).

Tested on: Adult human keratinocytes
Test: Telomerase expression (TRAP assay kit) in treated keratinocytes
Format: cell-based
Conditions: keratinocytes exposed to both agents in sequence: 10-25 μM 5-aza-2′-deoxycytidine for 5 days and 100-250 ng/ml trichostatin for 1 day; versus cells not exposed
Experimental: Adult human keratinocytes are obtained form Clonetics (San Diego, Calif.) and grown in Keratinocyte Growth Media in 5-10% CO2 at 37 degree C. according to the instructions “Keratinocyte System Instructions” BioWhittaker Catalogue number AA-1000. When the adult keratinocytes are about 40-80% confluent, 10-25 μM 5-aza-2′-deoxycytidine (Sigma, St Louis, Mo.) is added to the culture. After 4 days of incubation with 5-aza-2′-deoxycytidine, 100-250 ng/ml trichostatin (Sigma, St Louis, Mo.) is added to the culture. The culture is incubated for an additional day and sampled for telomerase activity.
Keratinocytes exposed to 10-25 μM 5-aza-2′-deoxycytidine for 5 days and 100-250 ng/ml trichostatin for 1 day and cells not exposed to these agents are assayed for the expression of telomerase (using a commercially available TRAP assay kit). These cells are assayed along side positive controls (HeLa and NH-12 cells) and negative controls (human foreskin fibroblasts and heated HN-12 cell extracts). Telomerase activity is measured by phosphoimaging telomeric products resolved on 12.5% […]. Telometric ladders indicative of telomerase activity, consistent with the presence of stem cells is observed in the positive controls and in the keratinocytes exposed to 10-25 μM 5-aza-2′-deoxycytidine for 5 days and 100-250 ng/ml trichostatin for 1 day.

SMILES	Telomerase activity (telomeric ladders)
Nc1ncn([C@H]2C[C@H](O)[C@@H](CO)O2)c(=O)n1 [5-aza-2′-deoxycytidine]	increased telomerase activity
CC(/C=C/C(=O)NO)=C\[C@@H](C)C(=O)c1ccc(N(C)C)cc1 [trichostatin]	increased telomerase activity
